According to PubChem BioAssay AID720605 (Broad Institute, 2013):

Tested on: U-251 glioblastoma viability, Alamar Blue, 8-48 h
Test: cytotoxicity in U-251 CNS tumor cells – cell-based, Alamar Blue fluorescence, 8/24/48 h, dry powder, HRAS target identification, dose response (AID 720605)

SMILES	AC50 (measured here: 8 h treatment) [nM]	AC50 (measured here: 24 h treatment) [nM]	AC50 (measured here: 48 h treatment) [nM]
COC(=O)c1ccc([C@@H]2c3[nH]c4ccccc4c3C[C@@H](C(=O)OC)N2C(=O)CCl)cc1	14.4	42.7	45.4
Cc1onc(C(=O)N2CCN(C(c3ccc(Cl)cc3)c3ccc(Cl)cc3)CC2)c1[N+](=O)[O-]	383	359	293
COc1ccc(N(C(=O)CCl)C(C(=O)NCCc2ccccc2)c2cccs2)cc1Cl (stereo not given)	66.3	54.3	51
C#CCCCC(=O)NCCOCCOCCOc1ccc(N(C(=O)CCl)C(C(=O)NCCc2ccccc2)c2cccs2)cc1Cl (stereo not given)	1990	920	855
CC(C)(C)OC(=O)NCCOCCOCCOc1ccc(N(C(=O)CCl)C(C(=O)NCCc2ccccc2)c2cccs2)cc1Cl (stereo not given)	297	229	330
